Measured values reported in paper PMC8066102, “Metabolic Profiles of New Unsymmetrical Bisacridine Antitumor Agents in Electrochemical and Enzymatic Noncellular Systems and in Tumor Cells” (Pharmaceuticals, 2021).

Legend:
Format in all cases: in vitro ADME
UGT 1A10 = target: T1, UGT 1A10 (Homo sapiens, UniProt Q9HAW8); assay: Glucuronidation with recombinant UGT1A10; set-up: key to Glucuronidation potency UGT 1A10: −: the lack of UGT activity; +: the significant UGT activity; settings: 0.05 mM compound; for Glucuronidation potency UGT 1A10: 1 mg/mL UGT, 5 mM UDPGA
T1 construct: His tag; purchased Corning, NY, USA (through DIAG-MED, Poland); host or cells: baculovirus-insect cells (Supersomes); Results say Sf9 cells
T1 sequence (Q9HAW8 26-530): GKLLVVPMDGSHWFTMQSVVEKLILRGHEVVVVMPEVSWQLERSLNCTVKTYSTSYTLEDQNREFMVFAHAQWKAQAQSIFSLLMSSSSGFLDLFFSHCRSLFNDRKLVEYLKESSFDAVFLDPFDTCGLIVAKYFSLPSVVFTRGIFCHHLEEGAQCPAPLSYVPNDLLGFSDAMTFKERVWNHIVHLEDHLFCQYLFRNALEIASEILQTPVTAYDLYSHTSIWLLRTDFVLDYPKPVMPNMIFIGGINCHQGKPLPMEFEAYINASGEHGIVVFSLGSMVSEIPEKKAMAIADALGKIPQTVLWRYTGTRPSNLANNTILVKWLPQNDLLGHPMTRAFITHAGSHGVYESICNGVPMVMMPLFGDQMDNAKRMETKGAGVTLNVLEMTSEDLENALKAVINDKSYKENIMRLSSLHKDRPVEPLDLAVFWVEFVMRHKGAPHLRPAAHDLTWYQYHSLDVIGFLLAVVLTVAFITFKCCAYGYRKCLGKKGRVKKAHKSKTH
Method: (§1) Recombinant UGT isoform protein (1 mg/mL) was assayed for activity toward tested UAs as follows. The proteins were incubated in a buffer containing 0.1 M HEPES (pH 7.4), 8 mM MgCl2 and alamethicin (25 μg/mL) with either 0.05 mM substrate in total volume 70 µL (alamethicin was added to permeabilize the membrane). Substrates were also in buffer HEPES, pH 7.4. Reactions were started by the addition of UDPGA (5 mM) and were incubated for specified time at 37 °C. The reactions were stopped by the addition of 8.75 µL of 1 M HCl, followed by centrifugation at 13400 rpm for 10 min to pellet the denatured protein. The supernatant fractions were used for HPLC analysis. Control reactions omitting substrate were run with each assay. All incubations were performed in two repetitions.

UGT 2B17 = target: T2, UGT 2B17 (Homo sapiens, UniProt O75795); assay: Glucuronidation with recombinant UGT2B17; set-up: key: −: the lack of UGT activity; +: the significant UGT activity; settings: 0.05 mM compound, 1 mg/mL UGT, 5 mM UDPGA
T2 construct: purchased Corning, NY, USA (through DIAG-MED, Poland); host or cells: baculovirus-insect cells (Supersomes)
T2 sequence (O75795 24-530): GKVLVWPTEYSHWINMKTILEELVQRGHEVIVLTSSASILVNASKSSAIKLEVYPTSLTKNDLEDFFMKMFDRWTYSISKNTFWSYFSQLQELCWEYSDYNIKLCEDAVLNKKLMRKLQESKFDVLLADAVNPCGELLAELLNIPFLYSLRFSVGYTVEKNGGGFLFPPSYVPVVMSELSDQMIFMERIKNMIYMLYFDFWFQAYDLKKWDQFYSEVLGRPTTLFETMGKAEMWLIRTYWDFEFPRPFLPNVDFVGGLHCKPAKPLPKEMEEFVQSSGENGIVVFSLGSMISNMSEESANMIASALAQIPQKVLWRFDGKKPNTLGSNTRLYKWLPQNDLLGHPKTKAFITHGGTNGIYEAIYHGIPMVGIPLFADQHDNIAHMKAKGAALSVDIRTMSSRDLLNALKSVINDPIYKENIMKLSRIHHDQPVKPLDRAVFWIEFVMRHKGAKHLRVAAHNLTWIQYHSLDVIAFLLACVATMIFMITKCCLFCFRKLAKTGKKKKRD
Method: as §1

UGT 2B4 = target: T3, UGT 2B4 (Homo sapiens, UniProt P06133); assay: Glucuronidation with recombinant UGT2B4; set-up: key: −: the lack of UGT activity; +: the significant UGT activity; settings: 0.05 mM compound, 1 mg/mL UGT, 5 mM UDPGA
T3 construct: purchased Corning, NY, USA (through DIAG-MED, Poland); host or cells: baculovirus-insect cells (Supersomes)
T3 sequence (P06133 24-528): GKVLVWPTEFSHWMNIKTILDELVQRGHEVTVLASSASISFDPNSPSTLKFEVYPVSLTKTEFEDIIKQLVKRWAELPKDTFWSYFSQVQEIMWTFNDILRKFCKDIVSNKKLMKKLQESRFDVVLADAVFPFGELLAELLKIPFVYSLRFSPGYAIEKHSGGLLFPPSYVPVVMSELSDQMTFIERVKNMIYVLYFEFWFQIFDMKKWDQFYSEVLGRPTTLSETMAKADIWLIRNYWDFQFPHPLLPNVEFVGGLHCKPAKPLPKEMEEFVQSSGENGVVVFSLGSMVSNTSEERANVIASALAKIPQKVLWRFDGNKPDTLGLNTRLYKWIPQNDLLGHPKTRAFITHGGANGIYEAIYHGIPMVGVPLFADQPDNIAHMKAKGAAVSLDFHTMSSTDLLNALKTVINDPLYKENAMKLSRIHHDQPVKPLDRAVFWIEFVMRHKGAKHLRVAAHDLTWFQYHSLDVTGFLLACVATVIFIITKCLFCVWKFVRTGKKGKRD
Method: as §1

UGT1A1 = target: T4, UGT1A1 (Homo sapiens, UniProt P22309); assay: Glucuronidation with recombinant UGT1A1; set-up: His tag; purchased Corning, NY, USA (through DIAG-MED, Poland); host or cells: baculovirus-insect cells (Supersomes); Results say Sf9 cells; key: −: the lack of UGT activity; +: the significant UGT activity; settings: 0.05 mM compound, 1 mg/mL UGT, 5 mM UDPGA
T4 sequence (P22309 26-533): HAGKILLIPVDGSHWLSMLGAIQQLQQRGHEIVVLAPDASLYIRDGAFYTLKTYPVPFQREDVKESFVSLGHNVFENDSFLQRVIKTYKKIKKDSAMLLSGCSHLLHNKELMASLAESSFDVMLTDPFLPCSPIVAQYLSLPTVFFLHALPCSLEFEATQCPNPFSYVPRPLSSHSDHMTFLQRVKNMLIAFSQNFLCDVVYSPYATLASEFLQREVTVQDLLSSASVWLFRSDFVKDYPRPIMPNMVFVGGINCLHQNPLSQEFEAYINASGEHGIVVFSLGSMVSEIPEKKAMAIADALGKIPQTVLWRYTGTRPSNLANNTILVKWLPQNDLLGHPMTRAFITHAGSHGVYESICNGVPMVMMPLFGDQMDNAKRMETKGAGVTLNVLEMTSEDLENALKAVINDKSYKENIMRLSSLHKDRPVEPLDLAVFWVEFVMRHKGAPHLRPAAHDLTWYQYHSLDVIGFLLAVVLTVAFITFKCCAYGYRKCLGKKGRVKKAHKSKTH
Method: as §1

Compound | rate of metabolism (glucuronidation) with UGT1A10 (UGT 1A10; 1 mg/mL UGT1A10, 5 mM UDPGA, 120 min) [%] | Glucuronidation potency UGT 1A10 (UGT 1A10) | Glucuronidation potency UGT 2B17 (UGT 2B17) | Glucuronidation potency UGT 2B4 (UGT 2B4) | Glucuronidation potency UGT 1A1 (UGT1A1)
Cc1ccc([N+](=O)[O-])c2c(NCCCN(C)CCCNc3ccc4ncn5c6ccc(O)cc6c(=O)c3c45)c3ccccc3nc12 [C-2045] | 18 | + | − | − | +
CN(CCCNc1c2ccccc2nc2cccc([N+](=O)[O-])c12)CCCNc1ccc2ncn3c4ccccc4c(=O)c1c23 [C-2028] |  | − | − | − | −
Cc1ccc([N+](=O)[O-])c2c(NCCCN(C)CCCNc3ccc4ncn5c6ccccc6c(=O)c3c45)c3ccccc3nc12 [C-2053] |  | − | − | − | −
